PMC7334220, “Diamond Blackfan anemia is mediated by hyperactive Nemo-like kinase” (Nature Communications, 2020)

Assays:
[1] = system: c-Myb; assay: c-Myb expression and phosphorylation in Kp53A1 cells switched to 32 °C (Western blot); format: cell-based; conditions: pretreated 30 min, 37 to 32 °C for 0, 16, 48 h, Fig. 7d
Protocol: (§1) Bars represent means ± SD with individual data points overlaid. n = 3 independent experiments performed in triplicate. […] Source data are provided as a Source Data file.
Inhibitors were added to cells at indicated concentrations with a final DMSO concentration of 0.5%. […] IC50 calculations were obtained using 8–9 concentrations of compound and generated using the IC50 Calculator software by AAT Bioquest®. NLK, p38, or ALK5 for in vitro kinase assays were immunopurified from Kp53A1 cells. NLK activation was induced by incubating cells at 32° for 24-48 h, p38 by stimulating with IL-3, IL-6, SCF, and Epo at the same concentrations used for differentiating erythroid progenitors.

[2] = system: p38 phosphorylation; assay: p38 phosphorylation in treated cells (Western blot of pp38); format: cell-based, human; conditions: 100nM; rebuttal Experiment 12
[3] = system: RPS19-insufficient cord blood CD34+ HSPCs; assay: In vitro differentiation of cord blood CD34+ HSPCs transduced with shRNA against RPS19 (cell count and flow cytometry); format: cell-based, human; conditions: RPS19-insufficient erythroblasts treated at 100nM; rebuttal Experiment 12
Protocol: Cells were plated at 2000 cell per well in 96-well plates in the presence or absence of doxycycline. Relative amounts of live cells were quantified by luciferase-based Cell titer-Glo® assay. b TGFβR1 inhibitors were assessed for their ability to increase cell expansion in RPS19-insuffiency. As a control, vehicle alone (no doxycycline) is represented at the far left while all other samples were treated with doxycycline to induce RPS19-insufficiency. c Kit^+ erythroid progenitors were grown in the absence of doxycycline and in the presence of 10 µM of indicated compound. In addition, cells were treated with 5 ng/ml of TGFβ1 for 5 days before being subjected to Cell titer-Glo® assay. d Differentiating cord blood CD34^+ progenitors were transduced with shRNA against luciferase or RPS19 and treated with inhibitors at working concentrations for TGFβ inhibition every three days. […] Cells were counted and CD235^+ erythroid (i and iii) and CD11b^+ myeloid cell (ii and iv) percentages were determined by flow cytometry. The number of erythroid or myeloid cells is expressed as a percentage of the number of that lineage with no cytokine or drug treatment. Bars represent means ± SD with individual data points overlaid. n = 3 independent experiments performed in triplicate. Statistics: two-tailed Student’s t test, significant *p < 0.05. Also see Supplementary Fig. 1. Erythroid expansion is depicted in red while myeloid is in purple. Source data are provided as a Source Data file.
Cells were counted and assessed for cell surface expression of CD235. b Lin-Kit^+ hematopoietic progenitors were obtained from three mouse embryos expressing tetracycline-inducible shRNA against RPS19 at day E14.5 or three untreated mice, and thee mature RPL11^+/+ or three mature RPL11^+/lox mice treated with tamoxifen for eight weeks. […] Values were expressed as a percentage relative to untreated controls. c, d Intracellular phosphorylation of NLK at Thr298 was determined by capillary electrophoresis using the Peggy Sue™ Automated Western blotting platform. After lysis, 4 µg of protein from the CD235^+ population was probed against pThr298-NLK and normalized to GAPDH. […] After counting the total cell population, the ratio of CD235^+ erythroblasts was determined by flow cytometry and number of CD235^+ erythroblasts calculated. This was expressed as a percentage of the average number of erythroid cells present in untreated healthy controls. f NLK phosphorylation was assessed by capillary electrophoresis as above. Bars represent means ± SD with individual data points overlaid. […] Statistics: two-tailed Student’s t test, significant *p < 0.05. Also see Supplementary Fig. 8. Source data are provided as a Source Data file.
Primary human CD34^+ hematopoietic stem and progenitor cells were purified from cord or peripheral blood (New York Blood Center) or from human fetal liver tissue (Advanced Bioscience Resources and University of California, Los Angeles Center for AIDS Research) by using magnetic-activated cell sorting (Miltenyi Biotec) and were cryopreserved. Upon thawing, cells were cultured in x-Vivo15 media (Lonza) containing 10% fetal bovine serum, fms-related tyrosine kinase 3 (50 ng/ml), […] (50 ng/ml), interleukin-3 (IL-3; 20 ng/ml), interleukin-6 (IL-6; 20 ng/ml), and stem cell factor (50 ng/ml). When applied, TGFβ1 was added at 5 ng/ml. Kp53A1 cells were obtained from Javier Leon and cultured in DMEM supplemented with 10% fetal bovine serum at 37 or 32 °C.

[4] = system: NLK dimerization and p53; assay: YFP-/CFP-NLK FRET (NLK dimerization) and p53 flow cytometry in healthy bone marrow mononuclear cells; format: cell-based, human; conditions: Nutlin-3 24 h, control 6.6%, Fig. 6c, d
Text: as §1

[5] = system: NLK dimerization and p53; assay: YFP-/CFP-NLK FRET (NLK dimerization) and p53 flow cytometry in cord blood CD34+ HSPCs; format: cell-based, human; conditions: d
Text: Ribosome-insufficiency induces stabilization of p53 protein and contributes to DBA pathogenesis[27],[57]–[59]. […] To further examine the role of p53 in NLK activation in our model and DBA patient samples, we utilized Nutlin-3. Nutlin-3 inhibits the E3 ubiquitin ligase MDM2 binding of p53 and subsequently stabilizes p53 from ubiquitin-dependent degradation. NLK dimerizes upon activation[46] and the detection of FRET from dimerized YFP- and CFP-NLK pairs correlates with NLK activity in RPS19-insufficiency (Fig. 3d). […] We gated p53 expression into p53^low in which 6.6% of cells activate NLK, and p53^hi where 91.9% of cells activate NLK (Fig. 6b.ii). RPS19-insufficiency increased the p53^hi population from 8.1 to 34.1%, corresponding to an increase from 9.0 to 36.1% of cells with elevated NLK-dimerization (Fig. 6b.iii).
Fig. 6 NLK is activated in early erythroid progenitors and requires P53 stabilization in RPS19-insufficiency. a Cord blood CD34^+ progenitors were transduced with lentivirus expressing shRNA against luciferase (shLuc) or RPS19 (shRPS19) co-expressing GFP. Cells were also transduced with or without shRNA against p53 co-expressing mCherry. […] Cells were stained for p53 and both p53 and FRET was measured by flow cytometry. […] Bone marrow mononuclear cells from three DBA patients were pooled and analyzed simultaneously (iii). d Documentation of the percentage of cells with dimerizing NLK in p53^hi and p53^low is tabulated and can be compared with NLK in vitro kinase activity. e—green Samples were gated to include non-erythroid CD71^-CD235^- populations, MEP- and BFU-E-enriched CD71^lowCD235^- populations, CFU-E-enriched CD71^hiCD235^- populations and proerythroblast and intermediate erythroblast CD71^hiCD235^+ populations. […]

[6] = system: NLK phosphorylation at Thr298; assay: SDS-PAGE / pThr298-NLK Western blot after NLK in vitro kinase reaction (rebuttal Experiment 6); format: biochemical, human; conditions: Day 7
Protocol: Experiment 5. Activated p38 and NLK have different kinase specificity for NLK, c- […]
Immunopurification of activated NLK and p38 were incubated in the presence of ATP, Mg2+ and immobilized, dephosphorylated substrates. After 30 mins, the degree of substrate phosphorylation was determined. Of the four substrates examined, NL K wa s the most phosphorylated substrate detected wit h p38. The extent of phosphorylation of the other substrates by p38 was normalized to NLK as substrate , i.e. NLK-100%, c-Myb -79%, Raptor-33%, ST AT 3 -18%. Raptor was the most phosphorylated substrate of NLK. Consequently, phosphorylation of other substrates by NLK is expressed as a percentage of NLK-mediated Raptor phosphorylation, i.e . NLK-37%, c-M yb -80%, […]
Conclusion: W hile p38 and NLK can phosphorylate NLK, c-Myb and Raptor in vitro, we observe different specificities between immunoprecipitated NLK and p38. This would […]
1) W estern blotting analysis or RadioIsotope ivk assay showing increase of NLK autophosphorylation activity (Graph data is not suitable. SDS-PAGE gel data with molecular maker is suitable to show the activity of NLK itself)
Response: We performed the W estern blot analysis as requested. Purified NLK incubated with immunopurified NLK from treated samples, were separated by SDS-PAGE and immunoblotted with pThr298- NLK antibody. […]

[7] = 3 days with Nutlin-3, Fig. 6b.ii

Structure (SMILES): CC(=O)N[C@@H](CSC(=O)[C@]1([C@@H](O)C(C)C)NC(=O)[C@H](C)[C@@H]1O)C(=O)O [lactacystin]
- expression and phosphorylation of c-Myb after NLK activation [1]: sustained out to 48 h

Structure (SMILES): C[C@@H]1CN(Cc2ccc(F)cc2)[C@@H](C)CN1C(=O)c1cc2c(C(=O)C(=O)N(C)C)cn(C)c2cc1Cl [SCIO-469]
- inhibition of p38 [2]: inhibited
- increase in erythropoiesis in RPS19-insufficiency [3]: no increase

Structure (SMILES): COc1ccc(C2=N[C@@H](c3ccc(Cl)cc3)[C@@H](c3ccc(Cl)cc3)N2C(=O)N2CCNC(=O)C2)c(OC(C)C)c1 [Nutlin-3]
- % P53hi [4]: 31.7%
- % FREThi in P53hi [5, 7]: 91.9%
- % FREThi in P53low [5, 7]: 6.6%
- % FREThi (cells with NLK dimerization) ([5]; shLuc, 3 days with Nutlin-3, control 9.0%, Fig. 6b): 50.2%

Structure (SMILES): CNC(=O)c1ccc(C)c(-n2c(C)cc(OCc3ccc(F)cc3F)c(Br)c2=O)c1 [PH797804]
- inhibition of p38 [2]: inhibited
- increase in erythropoiesis in RPS19-insufficiency [3]: no increase
- phosphorylation of NLK at Thr298 by NLK immunopurified from treated RPS19-insufficient cells [6]: not suppressed
